Results on five molecules are retold here after patent US20160230227A1, “METHODS OF TREATING ALZHEIMER'S DISEASE” (THE NEW YORK STEM CELL FOUNDATION, priority 2012, published 2016).

In one series the target is T1, γ-secretase (Homo sapiens, UniProt P49768).
T1 construct: endogenous in cells
The series can be described thus: Aβ production in conditioned media by ELISA. The class given is cell-based. As to conditions: 10 μM, control and PS1 cells. For orientation: ELISA stands for enzyme-linked immunosorbent assay.

The conditions of series [1]: cited from earlier work.
In the next series the test system is 7889O neurons. The class given is cell-based, human.
The subject of the next series is Na+ channels. Type of series: cell-based, human.
In a further series the test system is human iPSC-derived NPCs. In words: Proliferation of iPSC-derived NPCs (ki67 staining). Type of series: cell-based. The conditions noted are these: d14 NPCs; data not shown. An excerpt:
(§1) This supports a potential pro-neurogenic role for NDP in adult neurogenesis.

Series [2] concerns adult SVZ neural progenitor cells. The series can be described thus: Primary neurosphere formation of adult SVZ progenitors. Type of series: cell-based. The conditions noted are these: eight-week old mice, in the presence of EGF and FGF, 10 days in vitro, p=0.04. The protocol:
as §1
Adult FVB/N mice were killed by cervical dislocation (n=3 per preparation) and their brains removed and placed into Pipes buffer (20 mM Pipes, 25 mM glucose, 0.12M NaCl, 0.5 mM KCl [ph 7.4]). The lateral walls of the lateral ventricles were dissected, collected in Pipes buffer and incubated in a mixture containing 1.2 mL of activated papain and 8.8 ml of Pipes buffer. Papain was activated 20 min in advance by placing 3 mg of papain (Worthington Biochemical) in 1 ml of 1.1 mM EDTA, 5.5 mM cysteine HCl. The pieces of tissue were incubated in papain solution at 37° C. on a rocking platform for 10 min and collected by centrifugation at 1300 rpm for 5 min. The cellular pellet was resuspended in 1 ml of DMEM-F12 (GIBCO) containing 0.7 mg of ovomucoid inhibitor and 1 mg of DNase. The cells were dissociated and neural precursor cells were separated from differentiated cells, myelin and extracellular matrix using density gradient separation by centrifugation step with 22% Percoll. […] The cells were counted and plated in 96well-low attachment plate (Corning) (1.5×10^5/mL) in the same medium containing 10 ng/mL of EGF receptor grade (Millipore) and 10 ng/mL human bFGF (Invitrogen). […] The numbers of neurospheres were counted for six 40× fields/well after 10 days in vitro. […]

For `C[C@H](NC(=O)Cc1cc(F)cc(F)c1)C(=O)N[C@H](C(=O)OC(C)(C)C)c1ccccc1` [DAPT], the Aβ production entry at γ-secretase is recorded as “sufficient to block”; at γ-secretase (listed as DapT), “blocks”.

As for `CC12CC3CC(C)(C1)CC(N)(C3)C2` [Memantine], in series [1] (in vivo), the reported adverse events entry was “infrequent and mild”. In addition, the efficacy in treatment result in series [1] (moderate to severe Alzheimer's disease) is given as “moderately efficacious”.

Turning to `NC1=N[C@H](O)[C@H]2[C@H]3O[C@]4(O)O[C@@H]([C@@H](O)[C@@]2(N1)[C@@H]4O)[C@]3(O)CO` [TTX, tetrodotoxin], the “kinetics of remaining Ca2+ transients” value in the series on 7889O neurons is on record as “generally slower”. Also, in the series on Na+ channels, the action potentials entry is on record as “blocked” and the inward currents entry was “blocked”.

“recombinant norrin: recombinant Norrin protein (R&D systems), product of NDP; secreted molecule activating canonical Wnt signaling via Frizzled-4”: the “proliferation (ki67 staining)” value in the series with human iPSC-derived NPCs is “did not show differences in proliferation”. Further, the “proliferation as measured by primary neurosphere formation” value in series [2] is given as “increased proliferation”; in series [2] (listed as recombinant Norrin protein), “induces proliferation”.

For tetraethylammonium [TEA], the “long lasting outward current after the fast inward current” value in the series with K+ channels is listed as “cancelled”.
